Reference: US20120058206A1, “ANTIALLERGIC MARINE BIOPOLYMERS” (MARINOMED BIOTECHNOLOGIE GMBH, priority 2008, published 2012)

System: CFTL12 Mast cells stimulated with IgE/antigen complex (TNF-alpha release)
Experiment: Inhibition of TNF-alpha production from IgE/antigen stimulated mast cells
Type: cell-based, mouse
Conditions: 60 minutes before IgE/antigen stimulation; for inhibition of TNF-alpha release: carrageenan 200 μg/ml, 6 hours at 37° C., supernatant ELISA (FIG. 1)
Description: TNF-alpha is a mediator that is central in an inflammatory process as observed during infections, and autoimmune diseases. It is released by white blood cells, mast cells, endothelium and several other tissues in the course of damage.
CFTL12 Mast cells were incubated with iota or kappa carrageenan at a concentration of 200 μg/ml. 60 minutes later the cells were stimulated with an IgE/antigen complex. Cells were incubated at 37° C. for 6 hours and TNF-alpha in the supernatant was determined by a commercial mouse TNF-alpha ELISA (Bender-Med-Systems). Error bars indicate the standard deviation between 4 independent wells. 1=non-stimulated; 2=IgE/antigen stimulation; 3=lambda carrageenan pretretament+subsequent IgE/antigen stimulation; 4=kappa carrageenan pretreatment++subsequent IgE/antigen stimulation, 5=iota-carrageenan pretreatment+subsequent IgE/antigen stimulation. The Y-axis mirrors the concentration of TNF-alpha in pg/ml.
Mast cells were incubated with iota-carrageenan at varying concentrations. 60 minutes later the cells were stimulated with IgE/antigen complex. Cells were incubated at 37° C. for 6 hours and TNF-alpha in the supernatant was determined by a commercial mouse TNF-alpha ELISA (Bender-Med-Systems). Error bars indicate the standard deviation between 4 independent wells. 1=non-stimulated; 2=IgE/antigen stimulated, 3=iota-carrageenan 200 μg/ml, 4=iota-carrageenan 66 μg/ml, 5=iota-carrageenan 6.6 μg/ml, 6=iota-carrageenan 0.6 μg/ml. The Y-axis represents the concentration of TNF-alpha in pg/ml.

| Substance | dose dependence of inhibition of TNF-alpha production (200, 66, 6.6, 0.6 μg/ml, 6 hours (FIG. 2)) | inhibition of TNF-alpha release |
| --- | --- | --- |
| iota-carrageenan | Dose-Dependent Inhibition | inhibit TNF-alpha release |
| kappa carrageenan |  | inhibit TNF-alpha release |
| lambda carrageenan [reference compound] |  | not |
